Measured values: the supplement of paper PMC10307832

How the values were obtained:
Experiment in all cases: relative viability (nuclei count vs DMSO), 5 days (fraction); higher = more cells survive
[1] = compound: C1=CC2=NC=CN=C2C=C1/C=C/3\C(=O)NC(=O)S3 + CC(=O)c1c(C)c2cnc(Nc3ccc(N4CCNCC4)cn3)nc2n(C2CCCC2)c1=O [Palbociclib] (partner 0.5 µM)
Outline: (§1)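 Lung cancer cell lines in 1536-well plates got either a single drug or a fixed anchor-drug dose together with five library-drug doses (not always all listed) in √10 steps, by pin tool, on the day after seeding. Nuclei were counted after 5 days, and relative viability is the treated-to-vehicle ratio of nuclei counts. Values are medians of duplicate plates.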

BGJ398 + Decitabine = compound: CCN1CCN(c2ccc(Nc3cc(N(C)C(=O)Nc4c(Cl)c(OC)cc(OC)c4Cl)ncn3)cc2)CC1 [BGJ398] + Nc1ncn([C@H]2C[C@H](O)[C@@H](CO)O2)c(=O)n1 [Decitabine] (partner 2 µM)
Outline: as §1

[2] = compound: C1=CC2=NC=CN=C2C=C1/C=C/3\C(=O)NC(=O)S3 + Nc1nc2[nH]cc(CCc3ccc(C(=O)N[C@@H](CCC(=O)O)C(=O)O)cc3)c2c(=O)[nH]1 [Pemetrexed] (partner 0.2 µM)
Outline: as §1

BGJ398 + Alpelisib = compound: CCN1CCN(c2ccc(Nc3cc(N(C)C(=O)Nc4c(Cl)c(OC)cc(OC)c4Cl)ncn3)cc2)CC1 [BGJ398] + Cc1nc(NC(=O)N2CCC[C@H]2C(N)=O)sc1-c1ccnc(C(C)(C)C(F)(F)F)c1 [Alpelisib] (partner 2 µM)
Outline: as §1

Cell Line | relative viability ([1]; first compound 0.02 µM) | relative viability ([1]; first compound 0.06325 µM) | relative viability ([1]; first compound 0.2 µM) | relative viability ([1]; first compound 0.6325 µM) | relative viability ([1]; first compound 2 µM) | relative viability (BGJ398 + Decitabine; first compound 0.01 µM) | relative viability (BGJ398 + Decitabine; first compound 0.03162 µM) | relative viability (BGJ398 + Decitabine; first compound 0.1 µM) | relative viability (BGJ398 + Decitabine; first compound 0.3162 µM) | relative viability (BGJ398 + Decitabine; first compound 1 µM) | relative viability ([2]; first compound 0.02 µM) | relative viability ([2]; first compound 0.06325 µM) | relative viability ([2]; first compound 0.2 µM) | relative viability ([2]; first compound 0.6325 µM) | relative viability ([2]; first compound 2 µM) | relative viability (BGJ398 + Alpelisib; first compound 0.01 µM) | relative viability (BGJ398 + Alpelisib; first compound 0.03162 µM) | relative viability (BGJ398 + Alpelisib; first compound 0.1 µM) | relative viability (BGJ398 + Alpelisib; first compound 0.3162 µM) | relative viability (BGJ398 + Alpelisib; first compound 1 µM)
NCI-H1975 | 0.465 | 0.683 | 0.563 | 0.56 | 0.394 | 0.492 | 0.454 | 0.423 | 0.406 | 0.381 | 0.266 | 0.297 | 0.299 | 0.288 | 0.294 | 0.601 | 0.642 | 0.745 | 0.667 | 0.61
CAL-12T | 0.394 | 0.664 | 0.454 | 0.48 | 0.403 | – | – | – | – | – | 1.03 | 1.31 | 1.34 | 1.09 | 1.28 | 1.11 | 1.37 | 1.25 | 1.36 | 1.47
HCC-44 | 0.866 | 0.946 | 1.03 | 0.969 | 0.919 | 0.886 | 0.914 | 0.959 | 0.976 | 0.8 | 0.578 | 0.688 | 0.667 | 0.675 | 0.655 | 0.8 | 0.761 | 0.763 | 0.856 | 0.815
EKVX | 0.384 | 0.428 | 0.342 | 0.381 | 0.405 | 0.315 | 0.294 | 0.388 | 0.349 | 0.316 | 0.337 | 0.356 | 0.363 | 0.438 | 0.364 | 0.798 | 0.665 | 0.95 | 0.842 | 0.977
NCI-H1651 | 0.495 | 0.503 | 0.507 | 0.515 | 0.453 | 0.463 | 0.604 | 0.664 | 0.602 | 0.458 | 0.53 | 0.474 | 0.582 | 0.589 | 0.518 | 1.04 | 0.952 | 0.961 | 0.918 | 0.939
NCI-H1944 | 0.287 | 0.289 | 0.352 | 0.312 | 0.331 | 0.401 | 0.404 | 0.448 | 0.43 | 0.48 | 0.537 | 0.587 | 0.575 | 0.564 | 0.584 | 0.689 | 0.816 | 0.899 | 0.805 | 0.845
NCI-H1703 | – | – | – | – | – | – | – | – | – | – | – | – | – | – | – | 0.331 | 0.394 | 0.348 | 0.332 | 0.359
Calu-6 | – | – | – | – | – | – | – | – | – | – | – | – | – | – | – | 0.861 | 1.01 | 0.984 | 0.999 | 0.944
EBC-1 | – | – | – | – | – | – | – | – | – | – | – | – | – | – | – | 0.806 | 0.85 | 0.917 | 0.812 | 0.884
SW 1573 | 0.464 | 0.56 | 0.346 | 0.309 | 0.33 | 0.501 | 0.557 | 0.478 | 0.498 | 0.466 | 0.883 | 1.1 | 0.802 | 0.862 | 0.711 | 0.689 | 0.961 | 0.765 | 0.761 | 0.789
A-427 | 0.498 | 0.561 | 0.507 | 0.524 | 0.533 | 0.559 | 0.564 | 0.594 | 0.515 | 0.481 | 0.963 | 1.03 | 0.959 | 0.96 | 0.903 | 1.08 | 1.07 | 0.944 | 0.848 | 0.662
NCI-H2347 | 0.456 | 0.382 | 0.415 | 0.443 | 0.429 | 0.608 | 0.621 | 0.612 | 0.621 | 0.563 | 0.417 | 0.447 | 0.427 | 0.444 | 0.408 | 1.01 | 1.04 | 1.01 | 1.13 | 1.08
NCI-H1355 | 0.359 | 0.419 | 0.401 | 0.359 | 0.358 | 0.378 | 0.309 | 0.348 | 0.352 | 0.348 | 0.944 | 1.07 | 1.1 | 1 | 0.939 | 0.71 | 0.828 | 0.9 | 0.837 | 0.823
NCI-H358 | 0.147 | 0.135 | 0.128 | 0.136 | 0.114 | 0.184 | 0.215 | 0.208 | 0.201 | 0.2 | 0.166 | 0.18 | 0.177 | 0.186 | 0.181 | 0.881 | 0.893 | 0.857 | 0.97 | 0.937
PC-3 [JPC-3] | 0.492 | 0.637 | 0.566 | 0.561 | 0.541 | 0.782 | – | 0.777 | – | 0.878 | 1.19 | 1.17 | 1.2 | 1.19 | 1.23 | 1.05 | – | 1.04 | 0.948 | 0.973
NCI-H2228 | 0.591 | 0.665 | 0.79 | 0.705 | 0.606 | – | – | – | – | – | 0.358 | 0.34 | 0.332 | 0.293 | 0.321 | 0.609 | 0.616 | 0.776 | 0.718 | 0.696
HOP-62 | 0.478 | 0.527 | 0.44 | 0.373 | 0.449 | 0.232 | 0.245 | 0.204 | 0.225 | 0.215 | 0.319 | 0.368 | 0.299 | 0.355 | 0.307 | 0.721 | 1.02 | 0.824 | 0.861 | 0.984
HARA | 0.27 | 0.261 | 0.241 | 0.213 | 0.238 | 0.587 | 0.412 | 0.389 | 0.371 | 0.38 | 0.226 | 0.233 | 0.256 | 0.231 | 0.249 | 0.784 | 0.635 | 0.752 | 0.817 | 0.787
